Assay results as given in ChEMBL document CHEMBL4177567, “Antibiotic adjuvants - A strategy to unlock bacterial resistance to antibiotics” (Bioorg Med Chem Lett, 2017).
In brackets after ≈: the same amount, converted by molar mass.

How the values were obtained:
Beta-lactamase 1 = molecular target: T1, Beta-lactamase 1 (Bacillus cereus, UniProt P00809); assay: Inhibition of Bacillus cereus beta-lactamase […] using CENTA as substrate up to 30 mins by Lineweaver-Burk plot analysis
T1 sequence (P00809 whole entry): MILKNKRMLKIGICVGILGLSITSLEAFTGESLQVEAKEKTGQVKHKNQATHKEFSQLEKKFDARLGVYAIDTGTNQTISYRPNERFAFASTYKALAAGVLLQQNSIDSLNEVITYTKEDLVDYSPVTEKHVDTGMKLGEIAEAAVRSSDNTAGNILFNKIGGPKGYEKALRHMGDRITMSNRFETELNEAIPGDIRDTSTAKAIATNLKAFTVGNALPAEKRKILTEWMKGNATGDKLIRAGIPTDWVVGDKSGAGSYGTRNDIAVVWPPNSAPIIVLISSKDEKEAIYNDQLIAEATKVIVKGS

Acinetobacter baumannii = assay: Antibacterial activity against Acinetobacter baumannii after 20 to 22 hrs by broth microdilution method; format: functional

O=C(NCB(O)O)S(=O)(=O)c1cc(Cl)cc(-c2nnn[nH]2)c1 showed a Ki (Beta-lactamase 1) of 200 pM.
C[C@]1(COC(=O)Cc2ccc(O)c(O)c2)[C@H](C(=O)O)N2C(=O)/C(=C/c3ccccn3)[C@H]2S1(=O)=O was tested, and the MIC (Acinetobacter baumannii) was 2 µg/mL (≈ 4.09 µM).
In the case of O=C(O)c1cccc(CS(=O)(=O)C(=O)NCB(O)O)c1, the Ki (Beta-lactamase 1) is reported as 1300 pM.
For O=C(NCB(O)O)S(=O)(=O)c1cc(-c2nnn[nH]2)cc(C(F)(F)F)c1, the Ki (Beta-lactamase 1) was 50 pM.
O=C(NCB(O)O)S(=O)(=O)c1ccnc(-c2nnn[nH]2)c1 showed a Ki (Beta-lactamase 1) of 800 pM.
